Assay results taken from US11632973B2, “Composition comprising taste modulation compounds, their use and foodstuff comprising them” (V. MANE FILS, priority 2015, dated 2023).
“Also recorded” adds a separate entry of the source.

Key:
Type in all cases: in vivo
[1] = system: expert tasters; assay: Effect on sweetness perception of Rebaudioside-A in water
[2] = system: expert tasters; assay: as above; conditions: for Taster Observations Taster 1 / Taster Observations Taster 2 / Taster Observations Taster 3 / Taster Observations Taster 4: Reb-A 250 ppm in water, TMC level 5 ppm; for bitter interference: Rebaudioside-A at 250 ppm, 5 ppm compound; for perception of sweetness: products with high intensity sweetener, four expert tasters, vs control
Method: The taste perception of the products containing the high intensity sweeteners without epsilon-caprolactam or 2-piperidone (Control) is compared with the same product (Test) containing epsilon-caprolactam or 2-piperidone. […] When a tasting solution is dosed with Rebaudioside-A at 250 ppm, with either epsilon-caprolactam or 2-piperidone at each 5 ppm, “bitter interference” and brightens pure sweetness are reduced.

[3] = system: panelists; assay: Various lactams added to cheese sauce, saltiness evaluation (Deviation from Reference); conditions: for perception of creaminess / perception of saltiness: cheese sauce comprising the compound, compared to the control; for Test Effects Taster 1 / Test Effects Taster 2 / Test Effects Taster 3 / Test Effects Taster 4: cheese sauce plus 5 ppm compound, compared with cheese sauce alone
Method: Epsilon-caprolactam, 2-piperidone, and N-methylcaprolactam were added to cheese sauce.
All cheese sauce samples were served at 21° C. Samples were stirred by hand prior to portioning to ensure even distribution of components. Approximately 9 ml of cheese sauce was served into odorless, translucent, one-ounce cups labeled with three-digit codes and capped with a lid. The samples were portioned out approximately 45 minutes prior to evaluation.
Panelists evaluated all samples in fully enclosed partitioned booths under white lights. Fizz NETWORK Software Acquisitions Biosystemes 2.47B was used for data collection. Each panelist was provided with filtered water for rinsing and instructed to follow a strict rinsing procedure. The rinsing protocol required panelists to rinse prior to tasting the first sample, and after tasting each sample.
Samples were evaluated using a Deviation from Reference (DFR) method. Panelists were given an identified reference labeled “000” and a coded sample simultaneously. The coded sample was either a blind, coded reference or a coded test sample. The panelists were instructed to taste the reference (000) first and mentally evaluate its SALTINESS intensity. Panelists were then instructed to taste and rate the coded sample's intensity for SALTINESS compared to the identified reference. Sample sets were given to the panelists in balanced, randomized order. A one-minute wait period was enforced between sample sets to reduce flavour carryover.
Panelists rated SALTINESS intensity difference from the reference using a 9-pt scale anchored with the following descriptors: (−4) Extremely less than Reference, (0) Same as Reference, (4) Extremely more than Reference. Number values were NOT shown on the scale. Statistical mean differences were calculated using one-way ANOVA using Fizz Calculations Biosystemes 2.47B. A significance level of p≤0.05 was set for statistical tests. Compared to the control the perceptions of saltiness and creaminess in the cheese sauce comprising epsilon-caprolactam, 2-piperidone, and N-methylcaprolactam is increased.

[4] = Reb-A 25 ppm in water, TMC level 5 ppm

Structure (SMILES) | Taster Observations Taster 1 [1, 4] | Taster Observations Taster 2 [1, 4] | Taster Observations Taster 3 [1, 4] | Taster Observations Taster 4 [1, 4] | sweetness ([1]; Rebaudioside-A at 25 ppm, 5 ppm compound) | Taster Observations Taster 1 [2] | Taster Observations Taster 2 [2] | Taster Observations Taster 3 [2] | Taster Observations Taster 4 [2] | bitter interference [2] | perception of sweetness [2] | perception of creaminess [3] | perception of saltiness [3] | Test Effects Taster 1 [3] | Test Effects Taster 2 [3] | Test Effects Taster 3 [3] | Test Effects Taster 4 [3]
O=C1CCCCN1 [2-piperidone] | sweeter,; also recorded: clean | clean sweet,; also recorded: no bitter | no bitter | best - sweetest,; also recorded: clean | purified and amplified | clean sweet,; also recorded: control | clean sweet,; also recorded: no lingering | clean sweet,; also recorded: no bitter,; also recorded: not linger | clean sweet,; also recorded: stronger sweet | reduced | purified and amplified | increased | increased | Delayed saltier; also recorded: More dairy impact | Increased saltiness; also recorded: Increased creaminess | Saltier; also recorded: Creamier | Clean sweet; also recorded: Stronger sweet
CN1CCCCCC1=O [N-methylcaprolactam] |  |  |  |  |  |  |  |  |  |  |  | increased | increased | Slight increase in saltiness | Unclean; also recorded: Slightly bitter | Bitter; also recorded: Increased saltiness | Least effective of three
O=C1CCCCCN1 [epsilon-caprolactam] | sweet,; also recorded: slightly bitter | dirty,; also recorded: unclean |  | slightly higher; also recorded: sweet |  | sweeter, less; also recorded: lingering,; also recorded: slightly bitter | less linger | sweeter; also recorded: cleaner,; also recorded: less lingering | sweeter upfront,; also recorded: cleaner,; also recorded: less lingering | reduced | purified and amplified | increased | increased | Slightly bitter; also recorded: Increased saltiness | Sweeter with less linger | Cleaner; also recorded: Less lingering; also recorded: Sweeter upfront | Cleaner; also recorded: Less lingering; also recorded: Sweeter upfront
